Assay results as given in US20250144046A1, “PHARMACEUTICAL COMPOSITIONS AND METHODS OF ADMINISTRATION” (METASTX, LLC, priority 2022, published 2025).
pIC50: −log10 of the molar value.

What was measured:
PC3 cells [1] = test: MTT assay, cancer cell metabolic activity and proliferation; type: cell-based; settings: Homo sapiens, PC-3, 24 h treatment, read-out: IC50, anti-proliferative effect (MTT)
Experimental: A MTT (3-[4,5-dimethylthiazol-2-yl]-2,5 diphenyl tetrazolium bromide) assay was used to assess cancer cell metabolic activity and proliferation.
The protocol was as follows: • A total of 4000 PC3 cells were seeded per well in 96-well plates. Following attachment, cells were treated with vehicle control DMSO, IPA3, Compound 1, Compound 3, and Compound 4 at various doses as indicated for 24 h. Growth inhibition was determined by MTT [3-(4,5-dimethylthiazol-2-yl)-2,5-diphenyltetrazolium bromide] (Sigma-Aldrich, St. Louis, MO, USA; catalog No. M2128) assay. The MTT solution was added to the media at a final concentration of 0.8 mg/mL and cells were incubated at 37° C. for 2 hours. After aspiration of media, formazan crystals were dissolved in 100 μl of DMSO. Optical densities were measured at 570 nm using a SynergyHT plate reader (BioTek. Winooski. […]. USA). To calculate IC50 values. GraphPad Prism Software was used (GraphPad Software. San Diego, CA. USA).

PC3 cells [2] = test: Cell-monolayer scratch assay (cell motility); type: cell-based, human; settings: 36 hours, half of the IC50 doses from the MTT assay
Experimental: The motility of cancer cells is an index of their ability to come out of the primary tumor, invade, and metastasize to distant tissues. MetasTx tested Compound 1. Compound 3, and Compound 4 for their inhibitory effect on human metastatic prostate cancer (PC3) cells by using a ‘cell-monolayer scratch assay”, a reliable technique to determine the rate of cancer cell motility.
A total of 0.5×10^5 PC3 cells were plated per well on 6 well plates to obtain 95% confluent monolayers of cells after overnight incubation. The following day, a linear scratch (wound) was made using a 200 μl pipette tip and the detached cells were washed away by sterile phosphate-buffered saline (PBS). Images of scratches were captured from three different locations under a phase-contrast microscope at 4× magnification. The monolayers were treated with the desired doses of vehicle or drugs (half of the IC50 doses determined from the MTT assay). The cells were allowed to migrate for 36 hours, and images of the wound were re-captured from the same locations. The percentage of healed areas was determined using the NIH ImageJ software by measuring the distance of imported images in Microsoft Office PowerPoint (Microsoft Office Inc.) at the same magnification.

PC3 cells [3] = test: Annexin V-PE / 7-AAD apoptosis and necrosis assay (flow cytometry); type: cell-based, human; settings: 24 hours treatment
Experimental: The anti-cancer efficacy of a drug was also evaluated based on the ability of the compound to induce apoptosis and/necrosis in cancer cells. […] Compound 1. Compound 3, and Compound 4 were tested based on their ability to induce apoptosis and necrosis in vitro. The protocol was as follows:
The apoptotic death of cells was determined using an Annexin V-PE apoptosis detection kit (Cat #559763; BD Biosciences. CA. USA) according to the manufacturer's protocol. In brief. PC3 cells were treated with DMSO (0.3%). IPA3. Compound 1. Compound 3 and Compound 4 for 24 hours. At the end of treatment, cells were trypsinized, washed with PBS and stained with annexin V-Phycoerythrin (PE) and 7-Amino-Actinomycin (7-AAD). The stained cells were analyzed using a flow cytometer within 1 h of staining.

PAK4 = PAK4 (Homo sapiens, UniProt O96013); settings: group II PAK; cited from earlier work
PAK5 = PAK5 (Homo sapiens, UniProt Q9P286); settings: group II PAK; cited from earlier work
PAK6 = PAK6 (Homo sapiens, UniProt Q9NQU5); settings: group II PAK; cited from earlier work
[4] = cited from earlier work

Chain of PAK4 (O96013 whole entry, species assumed): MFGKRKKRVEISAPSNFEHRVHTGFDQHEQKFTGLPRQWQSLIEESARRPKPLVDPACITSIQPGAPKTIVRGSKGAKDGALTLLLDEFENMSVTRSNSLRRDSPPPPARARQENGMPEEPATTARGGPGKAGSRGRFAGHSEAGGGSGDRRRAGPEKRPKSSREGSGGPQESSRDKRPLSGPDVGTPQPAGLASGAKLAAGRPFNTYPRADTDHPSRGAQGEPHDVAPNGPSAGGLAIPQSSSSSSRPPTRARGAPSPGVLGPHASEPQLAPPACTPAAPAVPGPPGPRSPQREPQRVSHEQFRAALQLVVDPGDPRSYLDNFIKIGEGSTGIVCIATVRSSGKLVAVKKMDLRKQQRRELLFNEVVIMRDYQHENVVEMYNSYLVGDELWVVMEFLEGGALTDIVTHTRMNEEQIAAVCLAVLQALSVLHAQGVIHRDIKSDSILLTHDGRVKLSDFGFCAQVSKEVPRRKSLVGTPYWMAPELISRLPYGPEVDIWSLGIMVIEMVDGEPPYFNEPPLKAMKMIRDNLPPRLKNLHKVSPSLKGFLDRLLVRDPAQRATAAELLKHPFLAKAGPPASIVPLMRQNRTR
Chain of PAK6 (Q9NQU5 whole entry, species assumed): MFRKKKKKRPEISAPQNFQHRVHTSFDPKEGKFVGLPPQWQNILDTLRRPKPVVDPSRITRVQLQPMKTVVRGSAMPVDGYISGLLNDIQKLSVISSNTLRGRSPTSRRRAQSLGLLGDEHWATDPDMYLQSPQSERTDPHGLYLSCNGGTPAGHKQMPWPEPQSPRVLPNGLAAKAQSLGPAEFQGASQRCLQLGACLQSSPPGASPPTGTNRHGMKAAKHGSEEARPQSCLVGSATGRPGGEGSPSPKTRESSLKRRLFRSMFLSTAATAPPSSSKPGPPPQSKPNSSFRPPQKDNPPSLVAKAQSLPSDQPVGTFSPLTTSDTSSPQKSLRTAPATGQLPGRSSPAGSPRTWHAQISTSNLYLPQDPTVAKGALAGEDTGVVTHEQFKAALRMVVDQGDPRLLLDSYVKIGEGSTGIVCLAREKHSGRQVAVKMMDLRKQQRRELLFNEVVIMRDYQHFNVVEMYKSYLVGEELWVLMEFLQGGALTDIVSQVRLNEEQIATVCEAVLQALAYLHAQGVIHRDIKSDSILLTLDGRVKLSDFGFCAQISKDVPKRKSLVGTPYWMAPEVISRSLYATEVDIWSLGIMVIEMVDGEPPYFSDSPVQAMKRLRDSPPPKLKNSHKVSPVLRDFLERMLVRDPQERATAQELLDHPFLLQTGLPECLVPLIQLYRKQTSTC
Chain of PAK5 (Q9P286 whole entry): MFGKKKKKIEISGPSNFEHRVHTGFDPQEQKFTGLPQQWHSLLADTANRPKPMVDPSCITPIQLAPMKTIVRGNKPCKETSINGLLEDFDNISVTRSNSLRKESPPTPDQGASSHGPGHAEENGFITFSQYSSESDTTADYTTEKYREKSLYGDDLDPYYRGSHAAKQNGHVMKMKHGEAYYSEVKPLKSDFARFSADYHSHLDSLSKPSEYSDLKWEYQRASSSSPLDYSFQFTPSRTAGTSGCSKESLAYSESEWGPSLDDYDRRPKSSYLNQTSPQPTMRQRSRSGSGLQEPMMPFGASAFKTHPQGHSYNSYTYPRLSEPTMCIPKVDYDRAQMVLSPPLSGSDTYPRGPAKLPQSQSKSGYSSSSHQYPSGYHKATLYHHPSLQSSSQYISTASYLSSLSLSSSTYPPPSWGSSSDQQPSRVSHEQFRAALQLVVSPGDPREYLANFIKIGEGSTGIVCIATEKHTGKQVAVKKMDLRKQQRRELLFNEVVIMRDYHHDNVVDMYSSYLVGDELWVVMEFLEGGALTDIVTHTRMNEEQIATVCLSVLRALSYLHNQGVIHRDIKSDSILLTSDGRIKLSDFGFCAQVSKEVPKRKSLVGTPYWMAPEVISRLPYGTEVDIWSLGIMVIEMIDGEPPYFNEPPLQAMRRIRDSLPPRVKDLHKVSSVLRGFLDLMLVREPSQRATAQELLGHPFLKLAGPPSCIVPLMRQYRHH

Row | pIC50 (PC3 cells [1]) | SMILES | inhibition of PC3 cell motility compared to vehicle (DMSO)-treated control (PC3 cells [2]) | induction of apoptosis and necrosis compared to vehicle (DMSO)-treated control (PC3 cells [3]) | total cell death compared to IPA-3 (PC3 cells [3]) | inhibition of PAK4 (PAK4) | inhibition of PAK5 (PAK5) | inhibition of PAK6 (PAK6) | stability in plasma [4]
1 | 4.30 | Oc1ccc2ccccc2c1CSc1c(O)ccc2ccccc12 [Compound 1] | did not show significant inhibition | robust induction of apoptosis and necrosis | – | – | – | – | –
2 | 4.65 | Oc1ccc2ccccc2c1CSCc1c(O)ccc2ccccc12 [Compound 3] | significant anti-cancer cell motility effects | robust induction of apoptosis and necrosis | superior efficacy in inducing total cell death | – | – | – | –
3 | 4.81 | Oc1ccc2ccccc2c1CCCc1c(O)ccc2ccccc12 [Compound 4] | significant anti-cancer cell motility effects | robust induction of apoptosis and necrosis | superior efficacy in inducing total cell death | – | – | – | –
4 | 4.55 | Oc1ccc2ccccc2c1SSc1c(O)ccc2ccccc12 [IPA-3, 2,2″-dihydroxy-1, 1′-dinaphthyldisulfide] | did not show significant inhibition | robust induction of apoptosis and necrosis | – | does not inhibit | does not inhibit | does not inhibit | not very stable
